Measured values as given in patent EP0771196B1, “EXCITATORY AMINO ACID RECEPTOR ANTAGONISTS” (ELI LILLY AND COMPANY, priority 1994, dated 1996).
Marks after values point to notes of the source that are not given here.

These compounds were tested on metabotropic glutamate receptors (assay: Displacement of 1S,3R-ACPD-sensitive [3H]glutamate binding to rat brain cell membranes). Conditions: crude membranes of rat forebrain; 10 µM compound.
Experimental: The binding of [^3H]glutamate was conducted with crude membranes of rat forebrain as described by Schoepp and True. Schoepp and True, Neuroscience Lett., 145, 100-104 (1992) and True and Schoepp, Society for Neuroscience Abstracts, 19, 470 (1993). IC50 values for the inhibition of [^3H]glutamate binding, or the percent displacement of [^3H]glutamate binding at a 10 µM concentration, of the formula I compound, is shown in Table II.

Compound	ACPD-Sensitive [^3H]Glutamate Binding % Displacement at 10 µM
CC(C)C(N)(C(=O)O)[C@H]1C[C@@H]1C(=O)O (mixture of isomers) [Example 14, 2SR- and 2RS-2-amino-2-(1SR,2SR-2-carboxycyclopropan-1-yl)-3-methylbutanoic acid]	(17%)
NC(Cc1ccccc1)(C(=O)O)C1CC1C(=O)O (stereo not drawn) [Example 1, 2SR- and 2RS-2-amino-2-(1SR,2SR-2-carboxycyclopropan-1-yl)-3-phenylpropanoic acid]	(61%)
N[C@](CC(c1ccccc1)c1ccccc1)(C(=O)O)[C@@H]1C[C@H]1C(=O)O [Example 66, 2S-2-amino-2-(1R,2R-2-carboxycyclopropan-1-yl)-4,4-diphenylbutanoic acid]	(36%)

Same assay, conditions: crude membranes of rat forebrain; 10 µM compound; 10 µM

Compound	ACPD-Sensitive [^3H]Glutamate Binding % Displacement at 10 µM
Cc1cccc(CCC(N)(C(=O)O)C2CC2C(=O)O)c1 [Example 67, 2R-2-amino-2-(1S,2S-2-carboxycyclopropan-1-yl)-4-(3-methylphenyl)butanoic acid]	(22%)^b

Same assay, conditions: crude membranes of rat forebrain; inhibition of [3H]glutamate binding

Compound	IC50 [nM]
NC(CCc1cccs1)(C(=O)O)[C@H]1C[C@@H]1C(=O)O (mixture of isomers) [Example 58, 2SR- and 2RS-2-amino-2-(1SR,2SR-2-carboxycyclopropan-1-yl)-4-(2-thienyl)butanoic acid]	580
NC(CCCCc1ccccc1)(C(=O)O)C1CC1C(=O)O (stereo not drawn) [Example 4, 2SR- and 2RS-2-amino-2-(1SR,2SR-2-carboxycyclopropan-1-yl)-6-phenylhexanoic acid]	2300
NC(CCc1cccc(-c2ccccc2)c1)(C(=O)O)[C@H]1C[C@@H]1C(=O)O (mixture of isomers) [Example 76, 2SR- and 2RS-2-amino-2-(1SR,2SR-2-carboxycyclopropan-1-yl)-4-(3-biphenyl)butanoic acid]	510
Cc1cccc(CCC(N)(C(=O)O)C2CC2C(=O)O)c1 [Example 70, 2S-2-amino-2-(1R,2R,2-carboxycyclopropan-1-yl)-4-(3-methylphenyl)butanoic acid]	8100
NC(CCc1ccc(Cl)cc1)(C(=O)O)C1CC1C(=O)O (stereo not drawn) [Example 25, 2SR- and 2RS-2-amino-2-(1SR, 2SR-2-carboxycyclopropan-1-yl)-4-(4-chlorophenyl)butanoic acid]	410
CCC(N)(C(=O)O)C1CC1C(=O)O (stereo not drawn) [Example 9, 2SR- and 2RS-2-amino-2-(1SR,2SR-2-carboxycyclopropan-1-yl)butanoic acid]	2200
N[C@@](CC1c2ccccc2Oc2ccccc21)(C(=O)O)[C@H]1C[C@@H]1C(=O)O [Example 71, 2R-2 amino-2-(1S,2S-2-carboxycyclopropan-1-yl)-3-(dibenzopyran-4-yl)propanoic acid]	530
COc1cccc(CCC(N)(C(=O)O)[C@H]2C[C@@H]2C(=O)O)c1OC (mixture of isomers) [Example 52, 2SR- and 2RS-2-amino-2-(1SR,2SR-2-carboxycyclopropan-1-yl)-4-(2,3-dimethoxyphenyl)butanoic acid]	4900
CCCCCC(N)(C(=O)O)C1CC1C(=O)O (stereo not drawn) [Example 12, 2SR- and 2RS-2-amino-2-(1SR,2SR-2-carboxycyclopropan-1-yl)heptanoic acid]	1800
CCCC(N)(C(=O)O)C1CC1C(=O)O (stereo not drawn) [Example 10, 2SR- and 2RS-2-amino-2-(1SR,2SR-2-carboxycyclopropan-1-yl)pentanoic acid]	2100
CC(N)(C(=O)O)C1CC1C(=O)O (stereo not drawn) [Example 8, 2SR- and 2RS-2-amino-2-(1SR,2SR-2-carboxycyclopropan-1-yl)propanoic acid, reference compound]	6200
NC(CC1CCCC1)(C(=O)O)C1CC1C(=O)O (stereo not drawn) [Example 41, 2SR- and 2RS-2-amino-2-(1SR,2SR-2-carboxycyclopropan-1-yl)-3-cyclopentylpropanoic acid]	1400
NC(CC1CCC1)(C(=O)O)C1CC1C(=O)O (stereo not drawn) [Example 40, 2SR- and 2RS-2-amino-2-(1SR,2SR-2-carboxycyclopropan-1-yl)-3-cyclobutylpropanoic acid]	29500
2R-2- amino-2-(1R,2R-2-carboxycyclopropan-1-yl)-3-(dibenzopyran-4-yl)propanoic acid [Example 74]	4200
CC(C)CC(N)(C(=O)O)[C@H]1C[C@@H]1C(=O)O (mixture of isomers) [Example 15, 2SR- and 2RS-2-amino-2-(1SR,2SR-2-carboxycyclopropan-1-yl)-4-methylpentanoic acid]	700
CC(C)CCCC(N)(C(=O)O)[C@H]1C[C@@H]1C(=O)O (mixture of isomers) [Example 17, 2SR- and 2RS-2-amino-2-(1SR, 2SR-2-carboxycyclopropan-1-yl)-6-methylheptanoic acid]	850
CC(C)CCC(N)(C(=O)O)[C@H]1C[C@@H]1C(=O)O (mixture of isomers) [Example 16, 2SR- and 2RS-2-amino-2-(1SR,2SR-2-carboxycyclopropan-1-yl)-5-methylhexanoic acid]	1100
NC(CCc1ccc(-c2ccccc2)cc1)(C(=O)O)[C@H]1C[C@@H]1C(=O)O (mixture of isomers) [Example 49, 2SR- and 2RS-2-amino-2-(1SR,2SR-2-carboxycyclopropan-1-yl)-4-(4-biphenyl)butanoic acid]	1500

Next, values leading:

IC50 [nM]	Compound
37	NC(CCc1ccc(F)c(F)c1)(C(=O)O)[C@H]1C[C@@H]1C(=O)O (mixture of isomers) [Example 78, 2SR- and 2RS-2-amino-2-(1SR,2SR-2-carboxycyclopropan-1-yl)-4-(3,4-difluorophenyl)butanoic acid]
360	NC(CCc1ccccc1Oc1ccccc1)(C(=O)O)[C@H]1C[C@@H]1C(=O)O (mixture of isomers) [Example 84, 2SR- and 2RS-2-amino-2-(1SR,2SR-2-carboxycyclopropan-1-yl)-4-(2-phenoxyphenyl)butanoic acid]
77	NC(CC(c1ccc(Cl)cc1)c1ccc(Cl)cc1)(C(=O)O)C1CC1C(=O)O (stereo not drawn) [Example 46, 2SR- and 2RS-2-amino-2-(1SR,2SR-2-carboxycyclopropan-1-yl)-4,4-di(4,4'-dichloro)phenylbutanoic acid]
380	NC(CCC1CCCCC1)(C(=O)O)C1CC1C(=O)O (stereo not drawn) [Example 44, 2SR- and 2RS-2-amino-2-(1SR,2SR-2-carboxycyclopropan-1-yl)-4-(cyclohexyl)butanoic acid]
25	NC(CCc1cc(Cl)cc(Cl)c1)(C(=O)O)[C@H]1C[C@@H]1C(=O)O (mixture of isomers) [Example 75, 2SR- and 2RS-2-amino-2-(1SR,2SR-2carboxycyclopropan-1-yl)-4-(3,5-dichlorophenyl)butanoic acid]
200	NC(CCC12CC3CC(CC(C3)C1)C2)(C(=O)O)C1CC1C(=O)O (stereo not drawn) [Example 36]
170	NC(CCc1cccc(Oc2ccccc2)c1)(C(=O)O)[C@H]1C[C@@H]1C(=O)O (mixture of isomers) [Example 60, 2SR- and 2RS-2-amino-2-(1SR,2SR-2-carboxycyclopropan-1-yl)-4-(3-phenoxyphenyl)butanoic acid]
300	NC(CCc1ccc(O)cc1)(C(=O)O)C1CC1C(=O)O (stereo not drawn) [Example 31, 2SR- and 2RS-2-amino-2-(1SR,2SR-2-carboxycyclopropan-1-yl)-4-(4-hydroxyphenyl)butanoic acid]
110	NC(CCc1cccc(Cl)c1)(C(=O)O)[C@H]1C[C@@H]1C(=O)O (mixture of isomers) [Example 24, 2SR- and 2RS-2-amino-2-(1SR,2SR-2-carboxycyclopropan-1-yl)-4-(3-chlorophenyl)butanoic acid]
210	NC(CCc1ccsc1)(C(=O)O)[C@H]1C[C@@H]1C(=O)O (mixture of isomers) [Example 59, 2SR- and 2RS-2-amino-2-(1SR,2SR-2-carboxycyclopropan-1-yl)-4-(3-thienyl)butanoic acid]
120	CC(CC(N)(C(=O)O)C1CC1C(=O)O)c1ccccc1 (stereo not drawn) [Example 34, 2SR,5SR-, 2SR,5RS-, 2RS,5SR- and 2RS,5RS-2-amino-2-(1SR,2SR-2-carboxycyclopropan-1-yl)-4-methyl-4-phenylbutanoic acid]
100	NC(CCc1ccccc1O)(C(=O)O)C1CC1C(=O)O (stereo not drawn) [Example 29, 2SR- and 2RS-2-amino-2-(1SR,2SR-2-carboxycyclopropan-1-yl)-4-(2-hydroxyphenyl)butanoic acid]
9	NC(Cc1cccc2c1Oc1ccccc1C2)(C(=O)O)[C@H]1C[C@@H]1C(=O)O (mixture of isomers) [Example 35, 2SR- and 2RS-2-amino-2-(1SR,2SR-2-carboxycyclopropan-1-yl)-3-(dibenzopyran-4-yl)propanoic acid]
76	NC(CC(c1ccccc1)c1ccccc1)(C(=O)O)C1CC1C(=O)O (stereo not drawn) [Example 5, 2SR- and 2RS-2-amino-2-(1SR,2SR-2-carboxycyclopropan-1-yl)-4,4-diphenylbutanoic acid]
64	NC(CCc1cccc(C(F)(F)F)c1)(C(=O)O)C1CC1C(=O)O (stereo not drawn) [Example 37, 2SR- and 2RS-2-amino-2-(1SR,2SR-2-carboxycyclopropan-1-yl)-4-(3-(trifluoromethyl)phenyl)butanoic acid]
95	COc1cc(CCC(N)(C(=O)O)[C@H]2C[C@@H]2C(=O)O)cc(OC)c1 (mixture of isomers) [Example 53, 2SR- and 2RS-2-amino-2-(1SR,2SR-2-carboxycyclopropan-1-yl)-4-(3,5-dimethoxyphenyl)butanoic acid]
49	NC(CCc1cccc(C(=O)O)c1)(C(=O)O)[C@H]1C[C@@H]1C(=O)O (mixture of isomers) [Example 79, 2SR- and 2RS-2-amino-2-(1SR,2SR-2-carboxycyclopropan-1-yl)-4-(3-carboxyphenyl)butanoic acid]
